Measurements published in ChEMBL document CHEMBL1139849, “Antifungal acylcyclopentenediones from fruiting bodies of Hygrophorus chrysodon” (2007).

Columns and labels:
Format in all cases: functional
Details in all cases: read-out: IZ
Fusarium verticillioides [1] = assay: Antifungal activity against Fusarium verticillioides Nirenberg (Sacc.) by agar diffusion method at 300 ug
Fusarium verticillioides [2] = assay: Antifungal activity against Fusarium verticillioides Nirenberg (Sacc.) by agar diffusion method at 50 ug
Fusarium verticillioides [3] = assay: Antifungal activity against Fusarium verticillioides Nirenberg (Sacc.) by agar diffusion method at 100 ug

Row | Structure (SMILES) | zone of inhibition at 300 µg/disc (Fusarium verticillioides [1]) | zone of inhibition at 50 µg/disc (Fusarium verticillioides [2]) | zone of inhibition at 100 µg/disc (Fusarium verticillioides [3])
1 | C=CCCCCCCCCC(O)=C1C(=O)C=CC1=O [CHRYSOTRIONE A] | 35 mm | 3 mm | 10 mm
2 | CCCCCCCCCCC(O)=C1C(=O)C=CC1=O [CHRYSOTRIONE B] | 18 mm | 3 mm | 15 mm
3 | Cc1cc(C2CCCCC2)n(O)c(=O)c1 [CICLOPIROX] | – | 25 mm | –
